System: Ox-LDL
Test: MARINE study, oxidized LDL
Type: in vivo, human
Conditions: MARINE ITT, week 12
Text: Parameters (a)-(y) can be measured in accordance with any clinically acceptable methodology. For example, triglycerides, total cholesterol, HDL-C and fasting blood sugar can be sample from serum and analyzed using standard photometry techniques. VLDL-TG, LDL-C and VLDL-C can be calculated or determined using serum lipoprotein fractionation by preparative ultracentrifugation and subsequent quantitative analysis by refractometry or by analytic ultracentrifugal methodology. Apo A1, Apo B and hsCRP can be determined from serum using standard nephelometry techniques. Lipoprotein (a) can be determined from serum using standard turbidimetric immunoassay techniques. LDL particle number and particle size can be determined using nuclear magnetic resonance (NMR) spectrometry. Remnants lipoproteins and LDL-phospholipase A2 can be determined from EDTA plasma or serum and serum, respectively, using enzymatic immunoseparation techniques. Oxidized LDL, intercellular adhesion molecule-1 and interleukin-2 levels can be determined from serum using standard enzyme immunoassay techniques. These techniques are described in detail in standard textbooks, for example Tietz Fundamentals of Clinical Chemistry, 6th Ed. (Burtis, Ashwood and Borter Eds.), WB Saunders Company. […]

For `CC/C=C\C/C=C\C/C=C\C/C=C\C/C=C\CCCC(=O)OCC` [AMR101, all-cis eicosa-5,8,11,14,17-pentaenoic acid ethyl ester], the “Ox-LDL change from baseline (median)” value (2 g/day) was 0.4% and the “Ox-LDL change from baseline (median)” value (4 g/day) was −3.0%.

From patent US9827219B2, “Compositions and methods for lowering levels of high-sensitivity C-reactive protein (HS-CRP) in a subject” (priority 2012, dated 2017)
